Test results taken from patent US7763624B2, “Substituted pyrazolo[3,4-d]pyrimidines as ACK-1 and LCK inhibitors” (Amgen Inc., priority 2005, dated 2010).
Where two headings read alike, the source gives them in different places.

Columns and labels:
ACK1 = molecular target: T1, ACK1 (Homo sapiens, UniProt Q07912); test: ACK1 Enzymatic Assay (PGT/autophosphorylation ELISA); format: biochemical
T1 construct: a fusion of an N-terminal (His)6 Tag with amino acids 117 to 489 of ACK1; (His)6 (N); made in house; host or cells: baculovirus infected Hi-5 insect cells
Experimental: IC50 values of compounds of the invention may be assessed as follows. The ACK1 kinase assay utilizes a protein expressed in baculovirus infected Hi-5 cells (a fusion of an N-terminal (His)6 Tag with amino acids 117 to 489 of ACK1) purified by affinity chromatography on a Ni-NTA column. The substrate for the reaction is ACK1 itself (autophosphorylation) and poly-Glutamic acid-Tyrosine (PGT (4:1), Sigma catalog #PO275). The PGT is coated to Nunc 96 well plates at 80 μg/mL overnight at 4° C. The morning after coating, the plates are washed twice, and […] reaction buffer (10 mM Hepes, pH 7.6; 20 mM MgCl2; 75 mM NaCl, 0.125% TWEEN20 (polyoxyethylene sorbitan monolaurate); 1 mM DTT) with 5 μM ATP are added to each well. Test compounds are added in […] DMSO, and the reaction is started by addition of […] kinase in assay buffer. The reaction proceeds for 2 h at room temperature. Next, the plates are washed four times, and the level of tyrosine phosphorylation in a given well is quantified by standard ELISA assay utilizing a phosphotyrosine antibody (PY20, Pierce).

C8 cells = test: ACK1 Cell Based Assay (survival under low serum, Cytotox One); conditions: read-out: ACK1 Cell-based IC50
Experimental: ACK1 Cell Based Assay The ACK1 cell based assay is designed to find inhibitors of ACK1 kinase activity which would be prime candidates for the development of anticancer drugs. […] After 20 to 24 h incubation at 37° C. and 5% CO2, cell viability is determined using the Cytotox One kit (Promega) according to the manufacturer's instructions.

LCK = molecular target: T2, LCK (Homo sapiens, UniProt P06239); test: LCK-Homogeneous Time Resolved Fluorescent (HTRF) Kinase Assay; format: biochemical
T2 construct: 15 μL of LCK KD GST (225-509) for a final volume of 40 μL; GST
Experimental: LCK-Homogeneous Time Resolved Fluorescent (HTRF) Kinase Assay
The LCK HTRF assay begins with LCK in the presence of ATP phosphorylating the biotinylated peptide Gastrin. The reaction incubates for 90 min. To quench the assay detection reagents are added which both stop the reaction by diluting out the enzyme and chelating the metals due to the presence of EDTA. Once the detection reagents are added the assay incubates for 30 min to allow for equilibration of the detection reagents.
Buffer conditions are as follows: 50 mM HEPES pH 7.5, 50 mM NaCl, 20 mM MgCl2, 5 mM MnCl2, 2 mM DTT, 0.05% BSA.
The assay is quenched and stopped with 160 μL of a detection reagent. Detection reagents are as follows: Buffer made of 50 mM Tris, pH 7.5, 100 mM NaCl, 3 mM EDTA, 0.05% BSA, 0.1% Tween20.
The assay plate is read in either a Discovery or a RubyStar.

[1] = ACK1-dependent C8 cells, 0.125% FCS, 20 to 24 h

T2 sequence (P06239 225-509): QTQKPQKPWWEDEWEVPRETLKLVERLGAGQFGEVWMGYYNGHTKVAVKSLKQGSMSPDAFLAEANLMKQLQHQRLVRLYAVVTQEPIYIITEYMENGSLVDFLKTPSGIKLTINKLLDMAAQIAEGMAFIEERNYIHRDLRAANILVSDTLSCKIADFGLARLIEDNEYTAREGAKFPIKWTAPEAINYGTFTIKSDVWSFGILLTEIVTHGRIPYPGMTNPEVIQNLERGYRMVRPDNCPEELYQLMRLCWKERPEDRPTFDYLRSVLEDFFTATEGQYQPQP
T1 sequence (Q07912 117-489): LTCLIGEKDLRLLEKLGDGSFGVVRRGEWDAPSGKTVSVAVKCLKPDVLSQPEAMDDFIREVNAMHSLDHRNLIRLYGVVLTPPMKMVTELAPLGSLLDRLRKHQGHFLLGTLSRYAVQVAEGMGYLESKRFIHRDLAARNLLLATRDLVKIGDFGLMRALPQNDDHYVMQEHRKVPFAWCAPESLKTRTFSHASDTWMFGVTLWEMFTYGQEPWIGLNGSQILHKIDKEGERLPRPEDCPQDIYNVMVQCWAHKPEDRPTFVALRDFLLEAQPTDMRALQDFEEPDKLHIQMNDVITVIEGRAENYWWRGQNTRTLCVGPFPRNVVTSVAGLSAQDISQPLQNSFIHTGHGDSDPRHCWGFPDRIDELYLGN

Molecule | Ki (ACK1) [µM] | IC50 (C8 cells; [1]) [µM] | Ki (LCK) [µM] | IC50 (C8 cells) [µM]
(R)—N^3-(2,6-Dimethylphenyl)-N^6-(4-fluorophenyl)-1-(3-(2-(methoxymethyl)pyrrolidin-1-yl)propyl)-1H-indazole-3,6-diamine [Compound 65] | > 0.1 | > 0.1 | < 0.01 | –
COC(C)(C)CCn1nc(Nc2c(C)cc(F)cc2C)c2cnc(Nc3ccccc3)nc21 [Compound 78, N^3-(4-Fluoro-2,6-dimethyl-phenyl)-1-(3-methoxy-3-methyl-butyl)-N^6-phenyl-1H-pyrazolo[3,4-d]pyrimidine-3,6-diamine] | 0.01 to 0.1 | – | < 0.01 | > 0.1
Cc1cccc(C)c1Nc1nn(CCCN2CCCCC2)c2nc(Nc3ccccc3)ncc12 [Compound 48, N^3-(2,6-Dimethyl-phenyl)-N^6-phenyl-1-(3-piperidin-1-yl-propyl)-1H-pyrazolo[3,4-d]pyrimidine-3,6-diamine] | > 0.1 | > 0.1 | < 0.01 | –
N^3-(2,6-Dimethylphenyl)-1-(3-methoxy-3-methylbutyl)-1H-indazole-3,6-diamine [Compound 58] | > 0.1 | > 0.1 | < 0.01 | –
COC(C)(C)CCn1nc(Nc2c(Cl)cccc2Cl)c2cnc(Nc3ccc(OCCN4CCCC4)c(F)c3)nc21 [Compound 82, N^3-(2,6-Dichlorophenyl)-N^6-(3-fluoro-4-(2-(pyrrolidin-1-yl)ethoxy)phenyl)-1-(3-methoxy-3-methylbutyl)-1H-pyrazolo[3,4-d]pyrimidine-3,6-diamine] | < 0.01 | – | < 0.01 | 0.01 to 0.1
Cc1cccc(C)c1Nc1nn(CCC2COCO2)c2nc(Nc3ccccc3)ncc12 (centres unmarked) [Compound 35, 1-(2-(1,3-dioxolan-4-yl)ethyl)-N^3-(2,6-dimethylphenyl)-N^6-phenyl-1H-pyrazolo[3,4-d]pyrimidine-3,6-diamine] | 0.01 to 0.1 | > 0.1 | < 0.01 | –
2-(3-(2,6-dimethylphenylamino)-6-(phenylamino)-1H-indazol-1-yl)-1-(4-methylpiperazin-1-yl)ethanone [Compound 70] | > 0.1 | > 0.1 | < 0.01 | –
CNCCCn1nc(Nc2c(C)cccc2C)c2cnc(Nc3ccccc3)nc21 [Compound 39, N^3-(2,6-dimethylphenyl)-1-(3-(methylamino)propyl)-N^6-phenyl-1H-pyrazolo[3,4-d]pyrimidine-3,6-diamine] | 0.01 to 0.1 | > 0.1 | < 0.01 | –
COC(C)(C)CCn1nc(Nc2c(C)cc(C)cc2C)c2cnc(Nc3ccc(N4CCN(C)CC4)cc3)nc21 [Compound 77] | 0.01 to 0.1 | – | < 0.01 | 0.01 to 0.1
(R)—N^3-(2,6-Dimethylphenyl)-1-(3-(2-(methoxymethyl)pyrrolidin-1-yl)propyl)-1H-indazole-3,6-diamine [Compound 68] | > 0.1 | > 0.1 | 0.01 to 0.1 | –
COCCOc1ccc(Nc2ncc3c(Nc4c(C)cccc4C)nn(CCC(C)(C)OC)c3n2)cc1 [Compound 54, N^3-(2,6-Dimethyl-phenyl)-N-6-[4-(2-methoxy-ethoxy)-phenyl]-1-(3-methoxy-3-methyl-butyl)-1H-pyrazolo[3,4-d]pyrimidine-3,6-diamine] | 0.01 to 0.1 | > 0.1 | < 0.01 | –
COC(C)(C)CCn1nc(Nc2c(Cl)cccc2Cl)c2ccc(Nc3ccc(N4CCNCC4)cc3)cc21 [Compound 84] | 0.01 to 0.1 | 0.01 to 0.1 | < 0.01 | –
Cc1cccc(C)c1Nc1nn(CCN2CCOCC2)c2nc(Nc3ccc(N4CCN(C)CC4)cc3)ncc12 [Compound 53, N^3-(2,6-dimethyl-phenyl)-N^6-[4-(4-methyl-piperazin-1-yl)-phenyl]-1-(2-morpholin-4-yl-ethyl)-1H-pyrazolo[3,4-d]pyrimidine-3,6-diamine] | 0.01 to 0.1 | > 0.1 | < 0.01 | –
CN(C)CCCn1nc(Nc2c(Cl)cccc2Cl)c2cnc(Nc3ccccc3)nc21 [Compound 89, N^3-(2,6-Dichlorophenyl)-1-(3-(dimethylamino)propyl)-N^6-phenyl-1H-pyrazolo[3,4-d]pyrimidine-3,6-diamine] | < 0.01 | 0.01 to 0.1 | < 0.01 | –
COC(C)(C)CCn1nc(Nc2c(C)cccc2C)c2ccc(Nc3ccccc3)cc21 [Compound 59] | < 0.01 | 0.01 to 0.1 | < 0.01 | –
COC(C)(C)CCn1nc(Nc2ccccc2)c2cnc(Nc3ccccc3)nc21 [Compound 74, 1-(3-Methoxy-3-methyl-butyl)-N^3, N^6-diphenyl-1H-pyrazolo[3,4-d]pyrimidine-3,6-diamine] | > 0.1 | – | > 0.1 | > 0.1
Cc1cccc(C)c1Nc1nn(CCCN2CCCC2)c2nc(Nc3ccccc3)ncc12 [Compound 41, N^3-(2,6-dimethylphenyl)-N^6-phenyl-1-(3-(pyrrolidin-1-yl)propyl)-1H-pyrazolo[3,4-d]pyrimidine-3,6-diamine] | 0.01 to 0.1 | > 0.1 | < 0.01 | –
2-(3-(2,6-dimethylphenylamino)-6-(phenylamino)-1H-indazol-1-yl)acetic acid [Compound 69] | 0.01 to 0.1 | > 0.1 | < 0.01 | –
COC(C)(C)CCn1nc(Nc2c(C)cc(C)cc2C)c2cnc(Nc3ccccc3)nc21 [Compound 76, 1-(3-Methoxy-3-methyl-butyl)-N^6-phenyl-N^3-(2,4,6-trimethyl-phenyl)-1H-pyrazolo[3,4-d]pyrimidine-3,6-diamine] | > 0.1 | – | < 0.01 | > 0.1
CNc1ncc2c(Nc3c(Cl)cccc3Cl)nn(CCC(C)(C)OC)c2n1 [Compound 90, N^3-(2,6-dichlorophenyl)-1-(3-methoxy-3-methylbutyl)-N^5-methyl-1H-pyrazolo[3,4-d]pyrimidine-3,6-diamine] | – | > 0.1 | – | –
Cc1cccc(C)c1Nc1nn(CCC(C)O)c2nc(Nc3ccccc3)ncc12 (centres unmarked) [Compound 46, 4-(3-(2,6-dimethylphenylamino)-6-(phenylamino)-1H-pyrazolo[3,4-d]pyrimidin-1-yl)butan-2-ol] | 0.01 to 0.1 | > 0.1 | < 0.01 | –
(R)—N^3-(2,6-Dimethylphenyl)-1-(3-(2-(methoxymethyl)pyrrolidin-1-yl)propyl)-N^6-phenyl-1H-indazole-3,6-diamine [Compound 66] | > 0.1 | > 0.1 | < 0.01 | –
N^3-(2,6-dimethylphenyl)-1-(2-(4-methylpiperazin-1-yl)ethyl)-N^6-phenyl-1H-indazole-3,6-diamine [Compound 72] | 0.01 to 0.1 | > 0.1 | < 0.01 | –
Cc1cccc(C)c1Nc1nn(CC2CCOCC2)c2nc(Nc3ccc(N4CCNCC4)cc3)ncc12 [Compound 61] | < 0.01 | < 0.01 | < 0.01 | –
CNc1ncc2c(Nc3c(Cl)cccc3Cl)nn(CCC(C)(C)OC)c2n1 [Compound 83, N^3-(2,6-dichlorophenyl)-1-(3-methoxy-3-methylbutyl)-N^6-methyl-1H-pyrazolo[3,4-d]pyrimidine-3,6-diamine] | > 0.1 | – | < 0.01 | –
COC(C)(C)CCn1nc(Nc2c(C)cccc2C)c2cnc(Nc3ccc(N4CCNCC4)cc3)nc21 [Compound 56, N^3-(2,6-Dimethyl-phenyl)-1-(3-methoxy-3-methylbutyl)-N^6-(4-piperazin-1-yl-phenyl)-1H-pyrazolo[3,4-d]pyrimidine-3,6-diamine] | – | < 0.01 | < 0.01 | –
